Measurements as given in patent US20100222330A1, “New Compounds” (BIOVITRUM AB, priority 2001, published 2010).

Assays:
[1] = tested on: ob/ob mouse; assay: In vivo assay of reduction of food intake (15 h, osmotic minipump infusion); settings: for % Inhibition of Food Intake in ob/ob mice at 50 mg/Kg/day, 15 h: continuous subcutaneous infusion
Experimental: Obese (ob/ob) mouse is selected as the primary animal model for screening as this mutant mouse consumes high amounts of food resulting in a high signal to noise ratio. To further substantiate and compare efficacy data, the effect of the compounds on food consumption is also studied in wild type (C57BL/6J) mice. The amount of food consumed during 15 hours of infusion of compounds is recorded.
Male mice (obese C57BL/6JBom-Lee and lean wild-type C57B1/6JBom; Bomholtsgaard, Denmark) 8-9 weeks with an average body weight of 50 g (obese) and 25 g (lean) are used in all the studies. The animals are housed singly in cages at 23±1° C., 40-60% humidity and have free access to water and standard laboratory chow. The 12/12-h light/dark cycle is set to lights off at 5 p.m. The animals are conditioned for at least one week before start of study.
The test compounds are dissolved in solvents suitable for each specific compound such as cyclodextrin, cyclodextrin/methane sulfonic acid, polyethylene glycol/methane sulfonic acid, saline. Fresh solutions are made for each study. […] The purity of the test compounds is of analytical grade.
The animals are weighed at the start of the study and randomized based on body weight. Alzet osmotic minipumps (Model 2001 D; infusion rate 8 μl/h) are used and loaded essentially as recommended by the Alzet technical information manual (Alza Scientific Products, 1997; Teeuwes and Yam, 1976). Continuous subcutaneous infusion with 24 hours duration is used. The minipumps are either filled with different concentrations of test compounds dissolved in vehicle or with only vehicle solution and maintained in vehicle pre-warmed to 37° C. (approx. 1 h). The minipumps are implanted subcutaneously in the neck/back region under short acting anesthesia (metofane/enflurane). This surgical procedure lasts approximately 5 min. It takes about 3 h to reach steady state delivery of the compound.
(§1) The weight of the food pellets are measured at 5 p.m. and at 8 p.m. for two days before (baseline) and one day after the implantation of the osmotic minipumps. The weigh-in is performed with a computer assisted Mettler Toledo PR 5002 balance. Occasional spillage is corrected for. At the end of the study the animals are killed by neck dislocation and trunk blood sampled for later analysis of plasma drug concentrations.
Food consumption for 15 hours is measured for the three consecutive days and the percentage of basal level values is derived for each animal from the day before and after treatment. The values are expressed as mean±SD and ±SEM from eight animals per dose group. Statistical evaluation is performed by Kruskal-Wallis one-way ANOVA using the percent basal values. If statistical significance is reached at the level of p<0.05, Mann-Whitney U-test for statistical comparison between control and treatment groups is performed.

[2] = Plasma drug concentration at steady state in the food intake study (LC/MS); format: in vivo; parameters: unit not given here; settings: ob/ob mouse, trunk blood at end of study
Experimental: as §1
The plasma sample proteins are precipitated with methanol, centrifuged and the supernatant is transferred to HPLC vials and injected into the liquid chromatography/mass spectrometric system. The mass spectrometer is set for electrospray positive ion mode and Multiple Reaction Monitoring (MRM with the transition m/z 316 ? 221). A linear regression analysis of the standards forced through the origin is used to calculate the concentrations of the unknown samples.

Cc1ccc(S(=O)(=O)Nc2ccc(N3CCNCC3)c3ccccc23)cc1.Cl
melting point: 181 °C (dec.)

Cl.O=S(=O)(Nc1ccc(N2CCNCC2)c2ccccc12)c1ccc2ccccc2c1 [Example 13, 2-N-[4-(1-piperazinyl)-1-naphthyl]naphthalenesulfonamide, hydrochloride]
% Inhibition of Food Intake in ob/ob mice at 50 mg/Kg/day, 15 h [1]: 24.1%
Free plasma concentration of the compounds at steady state (Css, u) [2]: 0.035

Cc1ccc(S(=O)(=O)N(C)c2ccc(N3CCNCC3)c3ccccc23)cc1.Cl [Example 14, N,4-Dimethyl-N-[4-(1-piperazinyl)-1-naphthyl]benzenesulfonamide, hydrochloride]
% Inhibition of Food Intake in ob/ob mice, 15 h ([1]; dose of 100 mg/kg/d (footnote b)): 41^b %
Free plasma concentration of the compounds at steady state (Css, u) [2]: 0.23

Cl.O=S(=O)(Nc1ccc(N2CCNCC2)c2ccccc12)c1ccc(Br)cc1 [Example 19, 4-Bromo-N-(4-piperazin-1-yl-naphthalen-1-yl)-benzenesulfonamide, hydrochloride]
% Inhibition of Food Intake in ob/ob mice at 50 mg/Kg/day, 15 h [1]: 69.6%
Free plasma concentration of the compounds at steady state (Css, u) [2]: 0.150

Cl.O=S(=O)(Nc1ccc(N2CCNCC2)c2ccccc12)c1cccc(C(F)(F)F)c1 [Example 24, 3-Trifluoromethyl-N-[4-(1-piperazinyl)-1-naphthyl]benzenesulfonamide, hydrochloride]
% Inhibition of Food Intake in ob/ob mice at 50 mg/Kg/day, 15 h [1]: 46.2%
Free plasma concentration of the compounds at steady state (Css, u) [2]: 0.0076

Cl.O=S(=O)(Nc1ccc(N2CCNCC2)c2ccccc12)c1cccc2ccccc12 [Example 27, Naphthalene-1-sulfonic acid (4-piperazin-1-yl-naphthalen-1-yl)-amide, hydrochloride]
% Inhibition of Food Intake in ob/ob mice at 50 mg/Kg/day, 15 h [1]: 68.9%
Free plasma concentration of the compounds at steady state (Css, u) [2]: 0.008

COc1ccc(S(=O)(=O)Nc2ccc(N3CCNCC3)c3ccccc23)cc1.Cl [Example 29, 4-Methoxy-N-(4-piperazin-1-yl-naphthalen-1-yl)-benzenesulfonamide, hydrochloride]
% Inhibition of Food Intake in ob/ob mice at 50 mg/Kg/day, 15 h [1]: 71%
Free plasma concentration of the compounds at steady state (Css, u) [2]: 0.33

Cl.O=S(=O)(Nc1ccc(N2CCNCC2)c2ccccc12)c1ccc(Cl)cc1 [Example 30, 4-Chloro-N-(4-piperazin-1-yl-naphthalen-1-yl)-benzenesulfonamide, hydrochloride]
% Inhibition of Food Intake in ob/ob mice at 50 mg/Kg/day, 15 h [1]: 60.1%
Free plasma concentration of the compounds at steady state (Css, u) [2]: 0.275

Cc1ccc(F)cc1S(=O)(=O)Nc1ccc(N2CCNCC2)c2ccccc12.Cl [Example 34, 5-Fluoro-2-methyl-N-(4-piperazin-1-yl-naphthalen-1-yl)-benzenesulfonamide, hydrochloride]
% Inhibition of Food Intake in ob/ob mice at 50 mg/Kg/day, 15 h [1]: 51.4%
Free plasma concentration of the compounds at steady state (Css, u) [2]: 0.078

Cc1c(Cl)cccc1S(=O)(=O)Nc1ccc(N2CCNCC2)c2ccccc12.Cl [Example 48, 3-Chloro-2-methyl-N-(4-piperazin-1-yl-naphthalen-1-yl)-benzenesulfonamide, hydrochloride]
% Inhibition of Food Intake in ob/ob mice at 50 mg/Kg/day, 15 h [1]: 23.8%
Free plasma concentration of the compounds at steady state (Css, u) [2]: 0.008

Cc1cc(Cl)cc(Cl)c1S(=O)(=O)Nc1ccc(N2CCNCC2)c2ccccc12.Cl [Example 53, 2,4-Dichloro-6-methyl-N-(4-piperazin-1-yl-naphthalen-1-yl)-benzenesulfonamide, hydrochloride]
% Inhibition of Food Intake in ob/ob mice, 15 h ([1]; dose of 14.8 mg/kg/d (footnote a)): 25.7^a %
